The values that follow come from US5075298A, “Cephalosporins” (Roussel Uclaf, priority 1987, dated 1991).

Assay in all cases: In vitro activity, dilution method in a liquid medium (MIC)
What all share (assay type): cell-based

Experiment [1] concerns Staphylococcus aureus 285. To be noted: 24 H. As to the method: (§1) In vitro activity, dilution method in a liquid medium.
(§2) A series of tubes were prepared in which an equal quantity of sterile nutritive medium was distributed. Increasing quantities of the product under test were distributed into each tube and then each tube was seeded with a bacterial strain. After incubation for 24 or 48 hours in an incubator at 37° C., the inhibition of the growth was estimated by transillumination, which enabled the minimal inhibiting concentrations (M.I.C.), expressed in micrograms/ml to be determined.

Experiment [2] deals with Escherichia Coli T E M. The following applies: 24 H. The method, then: as §1, §2
For experiment [3], the system named is Saimonella typhimurium MZ 11. The following applies: 24 H. As to the method:
as §1, §2

In experiment [4] the test system is Staphylococcus aureus Exp. n° 54 146. The following applies: 24 H. As to the method:
as §1, §2

Experiment [5] concerns Proteus mirabilis (indol-) A 235. To be noted: 24 H. The method, then:
as §1, §2

The subject of experiment [6] is Escherichia Coli O 75. To be noted: COLIO75, 24 H. The method, then: as §1, §2
Experiment [7] deals with Kiebsiella pneumoniae Exp. 52 145. The following applies: 24 H. The method, then: as §1, §2
Experiment [8] deals with Streptococcus pyogenes 77 A. To be noted: 24 H. As to the method: as §1, §2
Experiment [9] concerns Enterobacter cloacae 1 321 E. The following applies: 1321E, 24 H. The method, then:
as §1, §2

Experiment [10] has as its system Kiebsiella aerogenes 1 522 E. The following applies: 24 H. The method, then: as §1, §2
Experiment [11] concerns Proteus vulgaris (indol) A 232. The following applies: 24 H. As to the method:
as §1, §2

In experiment [12] the test system is Escherichia Coli 1507 E. The following applies: COLI1507E, 24 H. The method, then: as §1, §2
In experiment [13] the test system is Providencia Du 48. The following applies: DU48, 24 H. As to the method: as §1, §2
In experiment [14] the test system is Pseudomonas aeruginosa 1771 m. The following applies: 24 H. The method, then:
as §1, §2

The test system of experiment [15] is Escherichia Coli DC 2. To be noted: COLIDC2, 24 H. The method, then:
as §1, §2

Experiment [16] has as its system Streptococcus pyogenes A 561. To be noted: A561, 24 H. The method, then:
as §1, §2

Experiment [17] deals with Escherichia Coli DC 0. To be noted: COLIDC0, 24 H. As to the method:
as §1, §2

In experiment [18] the test system is Serratia RG 2 532. The following applies: RG2532, 24 H. The method, then: as §1, §2
For experiment [19], the system named is Escherichia Coli UC 1894. To be noted: UC1894, 24 H. As to the method: as §1, §2

Structures can show the parent of a compound that is named as a salt.

For the compound `CO/N=C(\C(=O)N[C@@H]1C(=O)N2C(C(=O)O)=C(/C=C/C[n+]3cccc4ccsc43)CS[C@H]12)c1csc(N)n1` [ex. 1], the MIC is 0.15 µg/mL in experiment [1]; 0.04 µg/mL in experiment [2]; 0.04 µg/mL in [3]; 0.3 µg/mL in experiment [4]; 0.04 µg/mL in experiment [5]; 0.02 µg/mL in [6]. The MIC was 0.08 µg/mL in experiment [7]; not above 0.01 µg/mL in experiment [8]; 0.04 µg/mL in [9]; 0.15 µg/mL in [10]; 0.3 µg/mL in experiment [11]; 0.01 µg/mL in [12]. Also, the MIC was 0.3 µg/mL in experiment [13]; 0.6 µg/mL in [14]; 0.01 µg/mL in [15]; not above 0.01 µg/mL in experiment [16]; 0.04 µg/mL in [17]; 0.15 µg/mL in [18]. In experiment [19], this compound gave a minimal inhibitory concentration (MIC) not above 0.01 µg/mL.
For `Nc1nc(/C(=N/OC(F)F)C(=O)N[C@@H]2C(=O)N3C(C(=O)[O-])=C(/C=C/C[n+]4cccc5ccsc54)CS[C@H]23)cs1` [ex. 2, (6R,7R)-7-[[(2-amino-4-thiazolyl) [(Z)]-[(difluoromethoxy)imino]]acetamido]-8-oxo-3 [(E) 3-[7-[thieno[2,3-b]pyridino]-1-propenyl]-5-thia-1-azabicyclo[4,2,0]oct-2-en-2-carboxylate (internal salt)], the MIC in experiment [1] is 5 µg/mL; in experiment [2], 0.6 µg/mL; in [3], 0.3 µg/mL; in [4], 5 µg/mL; in experiment [5], 0.08 µg/mL; in experiment [6], 1.2 µg/mL. Moreover, the MIC in [7] is 0.6 µg/mL; in [8], not above 0.01 µg/mL; in experiment [9], 0.3 µg/mL; in [10], 0.6 µg/mL; in experiment [11] it was 0.3 µg/mL; in experiment [12], 0.15 µg/mL. In addition, the MIC in [13] was 2.5 µg/mL; in [14], 1.2 µg/mL; in [15] it was 0.6 µg/mL; in [16], not above 0.01 µg/mL; in experiment [17] it was 2.5 µg/mL; in experiment [18] it was 10 µg/mL. In addition, the MIC in experiment [19] was 0.04 µg/mL.
Consider `CO/N=C(\C(=O)N[C@@H]1C(=O)N2C(C(=O)[O-])=C(/C=C/C[n+]3cccc4ccsc43)CS[C@H]12)c1csc(N)n1` [ex. 3, (6R,7R)-7-[[(2-amino-4-thiazolyl)-[(Z)[methoxyimino]]-acetamido]-8-oxo-3-[(E)-3-[7-[thieno[2,3-b]pyridinio]-1-propenyl]-5-thia-1-azabicyclo[4,2,0]oct-2-en-2-carboxylate (internal salt)], for which the MIC in experiment [1] amounted to 2.5 µg/mL; in [2] it was 0.6 µg/mL; in [3], 0.3 µg/mL; in experiment [4] it was 2.5 µg/mL; in experiment [5], 0.04 µg/mL; in experiment [6], 0.3 µg/mL. In addition, the MIC was 1.2 µg/mL in [7]; not above 0.01 µg/mL in experiment [8]; 0.6 µg/mL in experiment [9]; 0.6 µg/mL in experiment [10]; 0.2 µg/mL in [11]; 0.04 µg/mL in [12]. Besides, the minimum inhibitory concentration (MIC) in experiment [13] is 1.2 µg/mL; in experiment [14], 2.5 µg/mL; in [15], 0.08 µg/mL; in experiment [16] it was not above 0.01 µg/mL; in experiment [17], 1.2 µg/mL; in [18], 5 µg/mL. In addition, 0.08 µg/mL was the least that counted as inhibitory in [19] (MIC).

As usually defined, the MIC is the lowest concentration that inhibits growth of the organism. A higher MIC goes with a need for much substance.
